# Calls of active or inactive are those of the source. Where a SMILES comes first, the peptide text is derived from it. [ ]: non-standard residue; d: D form. The star is where a group is joined. ξ: configuration not given here. ξNMe2Val = CC(C)C(C(=O)*)N(C)C; NMeV = CN[CH](C(=O)O)C(C)C; NHBn = c1ccc(CN*)cc1
# What was measured:
# Caspase-6 = biological target: T1, Caspase-6 (Homo sapiens, UniProt P55212); test: human caspase-6 inhibitors, dose response, biochemical, VEID-R110 fluorescence, cherry-pick (AID 720632)
# T1 sequence (P55212 whole entry): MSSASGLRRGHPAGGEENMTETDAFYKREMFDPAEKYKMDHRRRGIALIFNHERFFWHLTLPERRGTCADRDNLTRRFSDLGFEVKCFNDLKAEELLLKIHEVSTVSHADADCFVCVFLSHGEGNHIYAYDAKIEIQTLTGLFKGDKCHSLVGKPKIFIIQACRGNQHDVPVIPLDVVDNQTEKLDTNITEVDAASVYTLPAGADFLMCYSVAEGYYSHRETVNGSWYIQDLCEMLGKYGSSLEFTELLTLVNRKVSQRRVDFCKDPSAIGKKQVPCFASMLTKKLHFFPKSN
# [1] = biological target: T2, Long-chain-fatty-acid--AMP ligase FadD28 (Mycobacterium tuberculosis, UniProt P9WQ59); test: Fluorescence polarization aasay to screen for inhibitors that compete for the binding of FadD28 to a bisubstrate Measured in Biochemical System Using Plate Reader - 2147-01_Inhibitor_Dose_CherryPick_Activity.; type: functional, Mycobacterium tuberculosis H37Rv
# T2 sequence (P9WQ59 whole entry): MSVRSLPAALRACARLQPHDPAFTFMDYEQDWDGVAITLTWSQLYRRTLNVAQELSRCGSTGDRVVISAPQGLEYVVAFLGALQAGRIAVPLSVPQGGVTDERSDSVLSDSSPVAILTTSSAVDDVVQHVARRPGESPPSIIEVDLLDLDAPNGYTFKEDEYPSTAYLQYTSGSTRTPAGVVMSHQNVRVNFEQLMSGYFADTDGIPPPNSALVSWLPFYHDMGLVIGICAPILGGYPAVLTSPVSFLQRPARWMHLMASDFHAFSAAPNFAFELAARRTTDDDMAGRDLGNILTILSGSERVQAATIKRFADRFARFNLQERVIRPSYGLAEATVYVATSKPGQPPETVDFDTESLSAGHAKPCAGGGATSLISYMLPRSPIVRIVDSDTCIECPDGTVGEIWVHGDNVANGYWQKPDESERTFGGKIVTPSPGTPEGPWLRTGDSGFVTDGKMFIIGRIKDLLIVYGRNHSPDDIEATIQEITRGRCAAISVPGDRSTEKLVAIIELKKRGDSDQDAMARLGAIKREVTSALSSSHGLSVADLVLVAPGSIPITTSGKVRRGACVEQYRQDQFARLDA
# [2] = HeLa 2N DNA content increase, dose response, cell-based, IC50 (AID 1117349); type: functional
# [3] = HeLa 4N DNA content increase, dose response, cell-based, IC50 (AID 1117351); type: functional
# [4] = human group III sPLA2 inhibitors, dose response, biochemical, QFRET, IC50 (AID 743457);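 note: green fluorescence rise as the enzyme cleaves BODIPY PC-A2 in liposomes; potency for inhibition of the enzyme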
# Beta-galactosidase = Beta-galactosidase (Escherichia coli, UniProt Q8VNN2); test: Dose response counterscreen for EBI2 assay utilizing the enzyme, b-galactosidase.; type: functional
# Sequence of Beta-galactosidase (Q8VNN2 whole entry): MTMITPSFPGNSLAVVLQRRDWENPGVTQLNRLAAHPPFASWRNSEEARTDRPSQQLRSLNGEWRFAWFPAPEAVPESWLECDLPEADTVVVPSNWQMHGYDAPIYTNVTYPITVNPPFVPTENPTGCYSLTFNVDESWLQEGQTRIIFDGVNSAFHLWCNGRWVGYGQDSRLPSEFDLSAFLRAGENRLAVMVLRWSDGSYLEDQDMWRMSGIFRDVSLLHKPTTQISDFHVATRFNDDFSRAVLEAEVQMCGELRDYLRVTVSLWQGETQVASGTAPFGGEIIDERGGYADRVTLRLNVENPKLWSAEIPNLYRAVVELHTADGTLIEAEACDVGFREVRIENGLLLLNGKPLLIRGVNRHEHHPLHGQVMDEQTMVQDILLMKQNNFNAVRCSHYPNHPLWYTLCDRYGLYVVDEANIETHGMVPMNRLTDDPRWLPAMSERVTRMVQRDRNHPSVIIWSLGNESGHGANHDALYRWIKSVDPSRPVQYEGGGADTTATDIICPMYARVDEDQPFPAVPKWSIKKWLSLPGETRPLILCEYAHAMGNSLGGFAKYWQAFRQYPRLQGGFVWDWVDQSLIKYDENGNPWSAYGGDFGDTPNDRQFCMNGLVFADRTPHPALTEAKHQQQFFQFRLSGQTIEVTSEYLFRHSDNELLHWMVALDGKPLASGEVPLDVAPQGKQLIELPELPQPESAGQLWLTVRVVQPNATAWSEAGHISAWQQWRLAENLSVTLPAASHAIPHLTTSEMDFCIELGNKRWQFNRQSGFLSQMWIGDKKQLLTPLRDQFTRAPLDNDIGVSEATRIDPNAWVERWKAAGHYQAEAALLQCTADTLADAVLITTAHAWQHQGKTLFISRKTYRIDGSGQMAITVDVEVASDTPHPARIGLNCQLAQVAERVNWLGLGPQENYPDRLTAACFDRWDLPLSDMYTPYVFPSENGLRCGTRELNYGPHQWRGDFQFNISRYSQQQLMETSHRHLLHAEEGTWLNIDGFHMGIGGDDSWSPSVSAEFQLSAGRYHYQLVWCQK
# [5] = biological target: T3, Nuclear receptor subfamily 0 group B member 1 (Homo sapiens, UniProt P51843); type: functional, cell-based;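 note: HEK293T cells transfected with SF-1 and DAX-1 plus StAR promoter luciferase reporter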
# T3 sequence (P51843 whole entry): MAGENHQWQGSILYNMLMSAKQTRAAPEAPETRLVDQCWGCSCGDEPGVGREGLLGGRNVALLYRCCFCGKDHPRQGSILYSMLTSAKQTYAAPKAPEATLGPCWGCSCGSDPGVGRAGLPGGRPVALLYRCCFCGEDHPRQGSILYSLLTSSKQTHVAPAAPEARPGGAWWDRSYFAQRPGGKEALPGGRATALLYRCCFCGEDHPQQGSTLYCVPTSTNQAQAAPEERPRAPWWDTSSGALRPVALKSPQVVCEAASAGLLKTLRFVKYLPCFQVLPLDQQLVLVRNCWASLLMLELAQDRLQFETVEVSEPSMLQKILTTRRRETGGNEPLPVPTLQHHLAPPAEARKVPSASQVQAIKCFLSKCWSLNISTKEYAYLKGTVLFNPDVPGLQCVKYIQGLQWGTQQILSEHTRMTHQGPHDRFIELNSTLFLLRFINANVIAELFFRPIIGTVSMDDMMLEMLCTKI
# cells = type: functional, cell-based
# [6] = P. falciparum ATP4 D1247Y mutant growth inhibitors, dose response, NITD609-resistant line, SYBR Green, dry powder (AID 1159571); type: functional, cell-based;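 note: parasites synchronized at ring stage by sorbitol before testing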
# [7] = P. falciparum Dd2 growth inhibitors, dose response, SYBR Green, dry powder samples (AID 1159566); type: functional, cell-based;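 note: potency for growth inhibition with lower SYBR green DNA signal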
# [8] = P. falciparum Dd2 growth inhibitors, dose response, SYBR Green, cherry-picked samples (AID 1159567); type: functional, cell-based
# [9] = HepG2 cell cytotoxicity, dose response, cytotoxicity control, plate reader, dry powder samples (AID 1159569); type: functional, cell-based;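 note: inhibitor potency with signal falling toward the positive control level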
# [10] = P. falciparum 3D7-ScDHODH growth inhibitors, dose response, SYBR Green, dry powder samples (AID 1159570); type: functional, cell-based;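 note: parasite growth measured after 72 hours of compound exposure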
# [11] = inhibitors of clade B AD8 Env fusion, dose response, cell-based, cherry-pick (AID 652062); type: functional;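 note: luciferase signal from cell-cell fusion driven by HIV-1 clade B AD8 Env; potency is for inhibitors of fusion seen as a drop in luminescence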
# [12] = ZM109 Env clade C HIV-1 fusion inhibitors, dose response, HeLa effector, CEM target cells, luciferase, cherry-pick (AID 652058); type: functional, cell-based
# [13] = test system: Streptococcus sp. 'group A'; test: growth inhibition of control SK(-) GAS strain, dose response, counter-screen for streptokinase expression inhibitor project, luminescence, kanamycin, BacTiterGlo, confirmation (AID 1900); type: functional, organism-based
# Streptokinase A = biological target: T4, Streptokinase A (Streptococcus pyogenes serotype M1, UniProt P10520); test: S. pyogenes streptokinase expression inhibitors, potency, dose response, plasminogen activation absorbance, OD405 (AID 1914); type: functional, Streptococcus pyogenes M1 GAS;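 note: secreted streptokinase activity via plasminogen activation per viability signal from cell pellet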
# T4 sequence (P10520 whole entry): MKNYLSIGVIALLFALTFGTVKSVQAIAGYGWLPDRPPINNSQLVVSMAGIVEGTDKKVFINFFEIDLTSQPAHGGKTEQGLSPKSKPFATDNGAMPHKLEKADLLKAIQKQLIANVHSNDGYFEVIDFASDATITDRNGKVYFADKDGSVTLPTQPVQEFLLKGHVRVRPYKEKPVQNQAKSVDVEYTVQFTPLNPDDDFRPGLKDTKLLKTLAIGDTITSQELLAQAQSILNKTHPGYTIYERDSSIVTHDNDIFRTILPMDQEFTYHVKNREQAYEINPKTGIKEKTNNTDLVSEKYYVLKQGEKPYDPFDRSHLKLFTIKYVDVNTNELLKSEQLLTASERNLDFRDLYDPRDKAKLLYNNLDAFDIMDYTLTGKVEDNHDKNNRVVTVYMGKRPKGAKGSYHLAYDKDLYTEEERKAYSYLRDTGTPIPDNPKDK
# [14] = Luminescence Cell-Based Dose Retest to Confirm Inhibitors of Cancer Stem Cells. [Related pubchem assays (depositor defined):AID2717, AID2721]; type: functional; conditions: Homo sapiens
# [15] = HEp-2 cell cytotoxicity, dose response, cytotoxicity control for RSV inhibitor project, HTS (AID 2410); type: functional; conditions: human respiratory syncytial virus
# Streptococcus = test: Group A Streptococcus viability loss, dose response, counter-screen for streptokinase expression inhibitor project, luminescence, BacTiterGlo (AID 1915); type: functional, organism-based;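 note: potency for reduction of bacterial viability or growth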
# [16] = inhibitors of PGC1a acetylation in cells, dose response, cell-based, cherry-picked samples (AID 720514); type: functional;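 note: potency may reflect raised or lowered acetylation signal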
# [17] = biological target: FAD-linked sulfhydryl oxidase ALR (Homo sapiens, UniProt P55789); test: inhibitors of human ALR sulfhydryl oxidase, dose response, biochemical, H2O2 detection, luminescence, cherry-pick (AID 493248)
# Sequence of FAD-linked sulfhydryl oxidase ALR (P55789 whole entry): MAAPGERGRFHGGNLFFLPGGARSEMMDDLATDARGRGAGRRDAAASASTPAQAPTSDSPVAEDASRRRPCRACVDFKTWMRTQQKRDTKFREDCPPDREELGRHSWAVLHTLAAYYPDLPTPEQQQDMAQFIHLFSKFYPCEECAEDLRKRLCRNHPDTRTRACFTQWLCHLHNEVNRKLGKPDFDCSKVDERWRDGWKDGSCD
# Genome polyprotein = Genome polyprotein (dengue virus type 2, UniProt P29990); test: Dengue-2 NS5 methyltransferase inhibitors, primary screen, biochemical, confirmation dose response (AID 588689); type: functional
# Sequence of Genome polyprotein (P29990 2492-3391 limits assumed): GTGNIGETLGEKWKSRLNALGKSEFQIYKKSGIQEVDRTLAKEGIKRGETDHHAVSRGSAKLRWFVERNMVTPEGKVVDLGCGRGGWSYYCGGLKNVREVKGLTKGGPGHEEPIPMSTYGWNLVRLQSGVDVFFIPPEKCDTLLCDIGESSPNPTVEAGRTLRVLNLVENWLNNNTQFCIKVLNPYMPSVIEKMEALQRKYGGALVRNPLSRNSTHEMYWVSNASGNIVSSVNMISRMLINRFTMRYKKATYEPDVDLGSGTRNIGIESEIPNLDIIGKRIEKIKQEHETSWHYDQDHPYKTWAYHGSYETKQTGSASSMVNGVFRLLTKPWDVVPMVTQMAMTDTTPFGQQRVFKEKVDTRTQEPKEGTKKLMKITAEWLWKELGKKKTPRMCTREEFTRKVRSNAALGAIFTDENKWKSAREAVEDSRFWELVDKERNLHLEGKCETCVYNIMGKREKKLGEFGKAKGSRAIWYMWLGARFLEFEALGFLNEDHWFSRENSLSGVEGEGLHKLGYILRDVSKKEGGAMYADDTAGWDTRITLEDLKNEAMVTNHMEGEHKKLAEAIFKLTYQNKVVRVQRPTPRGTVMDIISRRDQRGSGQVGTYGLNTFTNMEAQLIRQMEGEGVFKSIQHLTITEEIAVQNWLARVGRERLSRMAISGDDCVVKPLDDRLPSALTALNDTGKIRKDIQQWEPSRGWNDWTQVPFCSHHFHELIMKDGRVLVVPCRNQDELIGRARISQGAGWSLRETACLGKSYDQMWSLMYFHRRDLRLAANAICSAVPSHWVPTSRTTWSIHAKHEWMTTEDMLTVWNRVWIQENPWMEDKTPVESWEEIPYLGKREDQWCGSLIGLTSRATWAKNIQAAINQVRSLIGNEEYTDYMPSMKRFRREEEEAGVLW
# [18] = ADAM10 inhibitors, peptide cleavage, dose response, biochemical, QFRET (AID 743254);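 note: ADAM10 enzyme with the DM2 quenched FRET peptide as substrate; EDANS fluorescence gain as the protease cuts the substrate; inhibitor potency against ADAM10 proteolytic activity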
# [19] = ADAM10 protease inhibitors, dose response, selectivity assay for ADAM17 exosite inhibitor project, biochemical, FRET peptide substrate, recombinant human ADAM10 (AID 743259);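 note: ADAM10 enzyme cleaving a FRET peptide substrate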
# [20] = biological target: T5, Disintegrin and metalloproteinase domain-containing protein 17 (Homo sapiens, UniProt P78536); test: ADAM17 protease inhibitors, dose response, counter-screen for ADAM10 exosite inhibitor project, biochemical, quenched FRET substrate (AID 743253)
# T5 sequence (P78536 whole entry, the tested form may be a part): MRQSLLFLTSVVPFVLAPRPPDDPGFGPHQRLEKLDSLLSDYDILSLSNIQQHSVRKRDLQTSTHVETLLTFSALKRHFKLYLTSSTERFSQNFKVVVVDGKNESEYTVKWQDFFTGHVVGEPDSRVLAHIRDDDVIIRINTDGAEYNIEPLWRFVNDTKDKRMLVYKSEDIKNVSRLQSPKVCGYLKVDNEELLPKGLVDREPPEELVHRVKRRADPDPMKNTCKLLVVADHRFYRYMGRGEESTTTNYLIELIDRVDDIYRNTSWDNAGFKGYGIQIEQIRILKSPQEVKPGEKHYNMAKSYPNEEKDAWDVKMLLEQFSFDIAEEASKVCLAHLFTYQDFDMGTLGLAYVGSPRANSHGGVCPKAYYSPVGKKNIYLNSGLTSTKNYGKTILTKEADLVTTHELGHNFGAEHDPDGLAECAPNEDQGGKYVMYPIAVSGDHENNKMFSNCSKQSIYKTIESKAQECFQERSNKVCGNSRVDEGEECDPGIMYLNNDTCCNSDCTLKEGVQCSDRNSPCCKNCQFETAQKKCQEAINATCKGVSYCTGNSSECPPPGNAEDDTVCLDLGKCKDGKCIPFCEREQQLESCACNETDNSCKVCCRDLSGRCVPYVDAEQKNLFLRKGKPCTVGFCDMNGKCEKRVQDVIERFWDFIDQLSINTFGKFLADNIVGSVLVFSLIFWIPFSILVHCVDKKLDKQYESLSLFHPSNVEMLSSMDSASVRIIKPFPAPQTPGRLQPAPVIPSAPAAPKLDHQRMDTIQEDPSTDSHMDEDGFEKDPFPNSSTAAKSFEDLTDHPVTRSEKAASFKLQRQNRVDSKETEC
# [21] = biological target: T5, Disintegrin and metalloproteinase domain-containing protein 17; test: exosite inhibitors of ADAM17, dose response, biochemical (AID 743260)
# [22] = biological target: T6, Methionyl-tRNA synthetase, putative (Trypanosoma brucei brucei, UniProt Q38C91); type: functional, Trypanosoma brucei brucei strain 927/4 GUTat10.1
# T6 sequence (Q38C91 whole entry): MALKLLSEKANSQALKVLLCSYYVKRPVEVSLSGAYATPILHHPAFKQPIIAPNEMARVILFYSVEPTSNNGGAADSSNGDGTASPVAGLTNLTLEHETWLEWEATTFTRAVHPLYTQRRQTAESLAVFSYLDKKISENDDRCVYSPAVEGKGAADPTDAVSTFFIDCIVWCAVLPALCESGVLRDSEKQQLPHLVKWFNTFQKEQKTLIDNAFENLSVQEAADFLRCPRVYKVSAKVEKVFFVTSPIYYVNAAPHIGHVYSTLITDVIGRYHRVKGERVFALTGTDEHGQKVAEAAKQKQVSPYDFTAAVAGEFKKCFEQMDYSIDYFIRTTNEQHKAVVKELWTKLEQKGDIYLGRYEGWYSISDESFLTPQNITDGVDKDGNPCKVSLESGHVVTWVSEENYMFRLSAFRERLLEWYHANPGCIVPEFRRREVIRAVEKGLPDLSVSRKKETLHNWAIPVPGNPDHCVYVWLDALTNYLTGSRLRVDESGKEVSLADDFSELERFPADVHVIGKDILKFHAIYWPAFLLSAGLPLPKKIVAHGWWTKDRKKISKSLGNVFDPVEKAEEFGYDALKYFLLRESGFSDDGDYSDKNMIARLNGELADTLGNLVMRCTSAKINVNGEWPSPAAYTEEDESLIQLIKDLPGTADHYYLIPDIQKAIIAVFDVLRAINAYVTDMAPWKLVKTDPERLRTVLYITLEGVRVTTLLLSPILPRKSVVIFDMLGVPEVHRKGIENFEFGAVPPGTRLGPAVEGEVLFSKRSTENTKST
# [23] = Counterscreen for inhibitors of Trypanosoma brucei methionyl tRNA synthetase (MetRS): Luminescence-based cell-based high throughput dose response assay to identify compounds that are cytotoxic to Jurkat human T lymphocyte cells.; type: functional
# [24] = inhibitors of HIV Env-driven cell fusion, dose response, cherry-pick (AID 652057); type: functional, cell-based
smiles,measurement,setting,value
O=C(CCc1nc(O)c2c3c(sc2n1)CCCC3)NCC(=O)Nc1ccccc1Br,AC50,Caspase-6,26.8 µM (active)
CC(NC(=O)c1ccc2[nH]cnc2c1)c1ccccc1 (centres undefined),AC50,[1],22.7 µM (active)
Cc1ccc(Nc2nccc(N(C)c3ccc4c(C)n(C)nc4c3)n2)cc1S(N)(=O)=O [PAZOPANIB],IC50,[2],> 10 µM (inactive)
same,IC50,[3],> 10 µM (inactive)
Cc1c(Cl)c(C(=O)NN=C(S)Nc2ccc(F)cc2)nn1C,IC50,[4],> 122 µM (inactive)
CC(C)Nc1ncnc2c1ncn2[C@H]1CN(Cc2ccc(Cl)cc2)C[C@@H](CO)O1,IC50,Beta-galactosidase,> 80 µM (inactive)
CC(C)C(NC(=O)C(C(C)C)N(C)C)C(=O)N(C)C(C(=O)N1CCCC1C(=O)N1CCCC1C(=O)NCc1ccccc1)C(C)C (centres undefined) (ξNMe2Val-V[NMeV]PP-NHBn; configuration not given here),IC50,[5],> 67.5 µM (inactive)
same,IC50,cells,> 67.5 µM (inactive)
CCCN(C)C[C@H]1Oc2ncc(C#Cc3ccc(F)cc3)cc2C(=O)N([C@@H](C)CO)C[C@H]1C,AC50,[6],1.23 µM (active)
same,AC50,[7],1.24 µM (active)
same,AC50,[8],2.37 µM (active)
same,AC50,[9],24.3 µM (active)
same,AC50,[10],2.14 µM (active)
Cc1cc(Nc2cccc(C(F)(F)F)c2)cc(=O)n1-c1cccc(C(F)(F)F)c1,AC50,[11],9.49 µM (active)
same,AC50,[12],1.85 µM (active)
Oc1ccc(/C=N/Nc2nc(-c3ccc(Cl)cc3)cc(C(F)(F)F)n2)cc1,EC50,[13],12.1 µM (active)
same,EC50,Streptokinase A,16.3 µM (active)
same,AC50,[14],4.06 µM (active)
same,CC50,[15],13.4 µM (active)
same,EC50,Streptococcus,> 150 µM (not active)
same,AC50,[16],31.7 µM (active)
O=C(CNc1ccc(Cl)cc1)NNC(=S)NCc1ccccc1,IC50,[4],> 122 µM (inactive)
O=S(=O)(c1ccc(Cl)cc1)N1CCN(Cc2nc(O)c3ccc(Cl)cc3n2)CC1,IC50,Beta-galactosidase,> 80 µM (inactive)
Cc1ccc(S(=O)(=O)N2C[C@@H]3N[C@H](C2)[C@H]3c2ccc(-c3ccncc3)cc2)cc1,AC50,[6],1.67 µM (active)
same,AC50,[7],1.03 µM (active)
same,AC50,[8],1.37 µM (active)
same,AC50,[9],82.3 µM (active)
same,AC50,[10],1.26 µM (active)
CC(C)(C)OC(=O)N1CCC(C(=O)Nc2ccc3c(c2)CCC3)CC1,IC50,[5],> 67.5 µM (inactive)
same,IC50,cells,> 67.5 µM (inactive)
O=C(O)c1ccc(Nc2nc3ccccc3nc2NS(=O)(=O)c2ccc(F)cc2)cc1,AC50,[17],> 100 µM (inactive)
same,AC50,[1],62.1 µM (active)
same,IC50,Genome polyprotein,24.9 µM (active)
O=C(NO)c1ccc(OC(F)F)cc1,IC50,[18],37 µM (inactive)
same,AC50,[17],4.38 µM (active)
same,IC50,[19],40.2 µM (inactive)
same,IC50,[20],36.5 µM (inactive)
same,IC50,[21],29.5 µM (inactive)
COc1cc(OC)c(OC)cc1/C=N/Nc1nc2ccccc2[nH]1,IC50,[22],119 µM (inactive)
same,IC50,[23],83.3 µM (inactive)
O=C1C=C(c2ccc3ncccc3c2)C[C@@H](c2ccc(Cl)cc2)C1,IC50,Beta-galactosidase,> 80 µM (inactive)
C[C@H](CO)N1C[C@H](C)[C@H](CN(C)S(=O)(=O)c2ccc(Cl)cc2)Oc2ccc(NC(=O)Nc3ccc4c(c3)OCO4)cc2C1=O,AC50,[11],13.7 µM (active)
same,AC50,[12],6.18 µM (active)
same,AC50,[24],2.11 µM (active)
